Assay results: patent publication US7138361B2, “Herbicidal heterocycles” (E. I. du Pont de Nemours and Company, priority 2000, dated 2006)

Key:
Type in all cases: in vivo
[1] = test system: Surinam grass (Brachiaria decumbens); assay: Test B postemergence
Summary of the method: (§1)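 Post-treatment, species sat 13–15 days under greenhouse conditions before visual scoring against controls, 0 (no effect) through 100 (complete control). Application preemergence to sown seeds or postemergence at 1- to 4-leaf stage, using a non-phytotoxic solvent/surfactant formulation.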

[2] = test system: barnyardgrass (Echinochloa crus-galli); assay: Test B postemergence
Summary of the method: as §1

[3] = test system: blackgrass (Alopecurus myosuroides); assay: Test B postemergence
Summary of the method: as §1

[4] = test system: cocklebur (Xanthium strumarium); assay: Test B postemergence
Summary of the method: as §1

corn (Zea mays) = assay: Test B postemergence
Summary of the method: as §1

[5] = test system: crabgrass (Digitaria sanguinalis); assay: Test B postemergence
Summary of the method: as §1

[6] = test system: giant foxtail (Setaria faberii); assay: Test B postemergence
Summary of the method: as §1

[7] = test system: lambsquarters (Chenopodium album); assay: Test B postemergence
Summary of the method: as §1

[8] = test system: morning glory (Ipomoea hederacea); assay: Test B postemergence
Summary of the method: as §1

[9] = test system: pigweed (Amaranthus retroflexus); assay: Test B postemergence
Summary of the method: as §1

[10] = test system: velvetleaf (Abutilon theophrasti); assay: Test B postemergence
Summary of the method: as §1

[11] = test system: wheat (Triticum aestivum); assay: Test B postemergence
Summary of the method: as §1

wild oat (Avena fatua) = assay: Test B postemergence
Summary of the method: as §1

Sunflower [12] = assay: Test C preemergence; conditions: Rate 125 g/ha; scale 0 to 100, 0 no effect, 100 complete control
[13] = test system: bermudagrass (Cynodon dactylon); assay: Test C preemergence
Summary of the method: (§2)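 Seeds are planted and treated before emergence; for the postemergence test, plants at 1- to 4-leaf stage (2–18 cm) receive the same formulation, a solvent blend containing surfactant. Plants stay in the greenhouse 12–14 days, then response is scored visually from 0 (none) to 100 (complete control).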

[14] = test system: cocklebur (Xanthium strumarium); assay: Test C preemergence
Summary of the method: as §2

[15] = test system: crabgrass (Digitaria sanguinalis); assay: Test C preemergence
Summary of the method: as §2

[16] = test system: goosegrass (Eleusine indica); assay: Test C preemergence
Summary of the method: as §2

kochia (Kochia scoparia) = assay: Test C preemergence
Summary of the method: as §2

soybean (Glycine max) = assay: Test C preemergence
Summary of the method: as §2

[17] = test system: velvetleaf (Abutilon theophrasti); assay: Test C preemergence
Summary of the method: as §2

Sunflower [18] = assay: Test C preemergence; conditions: Rate 500 g/ha, visual evaluation after 12 to 14 days
Sunflower [19] = assay: Test C preemergence; conditions: Rate 250 g/ha, scale 0 to 100, 0 no effect, 100 complete control
[20] = Rate 125 g/ha, scale 0 to 100, 0 no effect, 100 complete control
[21] = Rate 500 g/ha, scale 0 (no effect) to 100 (complete control), 13 to 15 days
[22] = preemergence, Rate 62 g/ha, scale 0 to 100
[23] = preemergence, Rate 500 g/ha, visual evaluation after 12 to 14 days
[24] = preemergence, Rate 250 g/ha, scale 0 to 100, 0 no effect, 100 complete control

Question: What does the source list for COc1cc(N2CCC(n3ccc(C(C)C)n3)C2=O)ccc1Br (centres unmarked) [Compound 140]?
Answer: Plant response rating, Surinam grass [1, 20]: 0; Plant response rating, Surinam grass [1, 21]: 0; Plant response rating, Barnyardgrass [2, 20]: 0; Plant response rating, Barnyardgrass [2, 21]: 80; Plant response rating, Blackgrass [3, 20]: 0; Plant response rating, Blackgrass [3, 21]: 0; Plant response rating, Cocklebur [4, 20]: 60; Plant response rating, Cocklebur [4, 21]: 90; Plant response rating, Corn (corn (Zea mays); [20]): 0; Plant response rating, Corn (corn (Zea mays); [21]): 0; Plant response rating, Crabgrass [5, 20]: 20; Plant response rating, Crabgrass [5, 21]: 80; Plant response rating, Foxtail, Giant [6, 20]: 0; Plant response rating, Foxtail, Giant [6, 21]: 70; Plant response rating, Lambsquarters [7, 20]: 70; Plant response rating, Lambsquarters [7, 21]: 100; Plant response rating, Morningglory [8, 20]: 0; Plant response rating, Morningglory [8, 21]: 100; Plant response rating, Pigweed [9, 20]: 60; Plant response rating, Pigweed [9, 21]: 90; Plant response rating, Velvetleaf [10, 20]: 0; Plant response rating, Velvetleaf [10, 21]: 60; Plant response rating, Wheat [11, 20]: 0; Plant response rating, Wheat [11, 21]: 0; Plant response rating, Wild Oat (wild oat (Avena fatua); [20]): 0; Plant response rating, Wild Oat (wild oat (Avena fatua); [21]): 0; Plant response rating, Sunflower (Sunflower [12]): 50; Plant response rating, Bermudagrass [13, 20]: 100; Plant response rating, Bermudagrass [13, 22]: 100; Plant response rating (0 to 100 where 0 is no effect and 100 is complete control), Bermudagrass [13, 23]: 100; Plant response rating, Bermudagrass [13, 24]: 100; Plant response rating, Cocklebur [14, 20]: 30; Plant response rating, Cocklebur [14, 22]: 30; Plant response rating, Cocklebur [14, 24]: 90; Plant response rating, Crabgrass [15, 20]: 100; Plant response rating, Crabgrass [15, 22]: 100; Plant response rating (0 to 100), Crabgrass [15, 23]: 100; Plant response rating, Crabgrass [15, 24]: 100; Plant response rating, Goosegrass [16, 20]: 100; Plant response rating, Goosegrass [16, 22]: 100; Plant response rating (0 to 100), Goosegrass [16, 23]: 100; Plant response rating, Goosegrass [16, 24]: 100; Plant response rating, Kochia (kochia (Kochia scoparia); [20]): 100; Plant response rating, Kochia (kochia (Kochia scoparia); [22]): 100; Plant response rating (0 to 100), Kochia (kochia (Kochia scoparia); [23]): 100; Plant response rating, Kochia (kochia (Kochia scoparia); [24]): 100; Plant response rating, Soybean (soybean (Glycine max); [20]): 80; Plant response rating, Soybean (soybean (Glycine max); [22]): 50; Plant response rating (0 to 100), Soybean (soybean (Glycine max); [23]): 100; Plant response rating, Soybean (soybean (Glycine max); [24]): 100; Plant response rating, Velvetleaf [17, 20]: 70; Plant response rating, Velvetleaf [17, 22]: 60; Plant response rating (0 to 100), Velvetleaf [17, 23]: 90; Plant response rating, Velvetleaf [17, 24]: 90; Plant response rating (0 to 100), Sunflower (Sunflower [18]): 90; Plant response rating, Sunflower (Sunflower [19]): 60
